Patent US20230331685A1, “HERBICIDAL COMPOUNDS AND METHODS OF USE THEREOF” (AG Plenus Ltd, priority 2020, published 2023)

How the values were obtained:
Assay type in all cases: in vivo
Chenopodium album = test: LTP post-emergence greenhouse test; details: Dosage 2000 g/ha
Arabidopsis thaliana [1] = test: HTPS pre-emergence application on dicot model plant
Method: (§1) The plates were placed in a controlled greenhouse in a random order inside a bath which allows flooding irrigation with tap water supplemented with a fertilizer. Applied compounds were dissolved into a final solution of 50% acetone, 49.9% DDW, 0.1% tween-20. A 96 well plate was used as a stock plate for preparing application solutions for 8 repeats. Each row contained different concentrations per chemical. Maximal concentration for application was 1.5 Kg/Ha and dilution factor is 2.5. Chemical application was performed one day after thinning out in a chemical hood. […] applied on first two true leaves in each well using 12 channel pipettes. Data collection: RGB (red, green, blue) data for green area per well was documented using camera. Data is collected at a few time points during the experiment: one day after thinning and before chemical application, two-, six- or nine-days post application. During the last two documentations, visual phenotyping was performed. Data analysis: Given RGB results and visual phenotype scores, a student t-test conducted to compare between treatment and control performance for continuous data (RGB) and Fisher exact test to analyze the non-continuous data (phenotypic scores). Dose-Response curves are generated for each treatment to infer ED50 and max. inhibition parameters, using treatment's log concentration range as the […] and normalized green area. […] Plate imaging performed at 11 and 18 DAA. RGB data for green area per well was documented and used to extract % inhibition. Dose-Response curves were built for each treatment to infer EC50, EC75 and EC90 parameters, using treatment's log concentration range as the independent variable and normalized green area as the dependent variable. Treatments were compared to controls performance given RGB results and using student's t-test (p-val≤0.05). Compounds 104-154 were applied in either or both pre- and post-emergence mode to either or both monocot and dicot model plants, following the methods described above. The compounds were applied as a gradient of concentrations as listed above, from which the ED50 was calculated.

Amaranthus palmeri [2] = test: LTP post-emergence greenhouse test; details: Dosage 2000 g/ha
Galium aparine = test: LTP post-emergence greenhouse test; details: Dosage 2000 g/ha
Lolium perenne [3] = test: LTP post-emergence greenhouse test; details: Dosage 2000 g/ha
Eragrostis tef [4] = test: LTP post-emergence greenhouse test; details: Dosage 2000 g/ha
Setaria viridis [5] = test: LTP pre-emergence greenhouse test; details: Dosage 2000 g/ha
Method: (§2) A basic panel of 8 weed species (Table 3) were sowed in 4×4×7 cm plastic pots containing inert sand (Sweet sand), intensively washed using osmosis water. Each specie was sowed in a separate pot. In each pot 10-15 seeds were sowed according to the specie viability. Sowing was performed one day before application. The plants were grown for 21 days in a controlled greenhouse (26±2° C. day 20±2° C. night). Hood irrigation (tap water+Shefer 5:3:8 8 mM) was given at a 50% water content by weight. Compounds were soluble in water (DDW), and commercial herbicide control was soluble in formulation B (Table 4). Application was conducted with an industrial sprayer (TeeJet 6502E nozzle) at a rate of 2 kg/ha and spray volume of […]. Pre-emergence advanced dose response experiment application was conducted at six rates between 1-0.0312 kg/ha and spray volume of […]. Percentage of emergence was evaluated at 15 DAA. Visual phenotyping was recorded using a scale of 0-6 (0: no visible effect, 6: maximum effect) at 18 DAA. All experiments included an untreated control, a solvent control and a positive control (commercial herbicide A.I.). […] Statistical analysis for plant emergence determined by % emergence ≥50 and T test (pval≤0.05), as well as Wilcox test (pval≤0.05).

Matricaria chamomilla = test: LTP pre-emergence greenhouse test; details: Dosage 2000 g/ha
Method: as §2

Phalaris paradoxa [6] = test: LTP pre-emergence greenhouse test; details: Dosage 2000 g/ha
Method: as §2

Amaranthus palmeri [7] = test: LTP pre-emergence greenhouse test; details: Dosage 2000 g/ha
Method: as §2

Alopecurus myosuroides = test: LTP pre-emergence greenhouse test; details: Dosage 2000 g/ha
Method: as §2

Abutilon theophrasti = test: LTP pre-emergence greenhouse test; details: Dosage 2000 g/ha
Method: as §2

Arabidopsis thaliana [8] = test: LTP pre-emergence greenhouse test; details: Dosage 2000 g/ha
Method: as §2

Eragrostis tef [9] = test: LTP pre-emergence greenhouse test; details: Dosage 2000 g/ha
Method: as §2

Poa annua [10] = test: LTP pre-emergence greenhouse test; details: Dosage 2000 g/ha
Method: as §2

Sinapis alba [11] = test: LTP pre-emergence greenhouse test; details: Dosage 2000 g/ha
Method: as §2

Lolium perenne [12] = test: LTP pre-emergence greenhouse test; details: Dosage 2000 g/ha
Method: as §2

Ambrosia artemisiifolia = test: LTP pre-emergence greenhouse test; details: Dosage 2000 g/ha
Method: as §2

Poa annua [13] = test: LTP post-emergence greenhouse test; details: Dosage 2000 g/ha
Phalaris paradoxa [14] = test: LTP post-emergence greenhouse test; details: Dosage 2000 g/ha
Sinapis alba [15] = test: LTP post-emergence greenhouse test; details: Dosage 2000 g/ha
Eragrostis teff = test: HTPS pre-emergence application on monocot model plant
Method: as §1

Echinochloa colon = test: LTP post-emergence greenhouse test; details: Dosage 2000 g/ha
Setaria viridis [16] = test: LTP post-emergence greenhouse test; details: Dosage 2000 g/ha
Solanum nigrum = test: LTP post-emergence greenhouse test; details: Dosage 2000 g/ha
[17] = dose-response of normalized green area

With `C[C@@H](O)[C@@H](N)CCCCC(=O)O` [Compound 104, (6S,7R)-6-amino-7-hydroxyoctanoic acid] the “Herbicidal activity (In-planta), LTP-Post emergence, Chenopodium album” value (Chenopodium album) was 90, the “ED50 (g/ha)” value (Arabidopsis thaliana [1]; [17]) was 6 g/ha and the “Max Inhibition (%)” value (Arabidopsis thaliana [1]; green area (RGB)) was 94%. For the same molecule, the “Herbicidal activity (In-planta), LTP-Post emergence, Amaranthus palmeri” value (Amaranthus palmeri [2]) was 90, the “Herbicidal activity (In-planta), LTP-Post emergence, Galium aparine” value (Galium aparine) was 70 and the “Herbicidal activity (In-planta), LTP-Post emergence, Lolium perenne” value (Lolium perenne [3]) was 85-90. For the same molecule, the “Herbicidal activity (In-planta), LTP-Post emergence, Eragrostis tef” value (Eragrostis tef [4]) was 60-100, the “Herbicidal activity (In-planta), LTP-Pre emergence, Setaria viridis” value (Setaria viridis [5]) was 100 and the “Herbicidal activity (In-planta), LTP-Pre emergence, Matricaria chamomilla” value (Matricaria chamomilla) was 80. The “Herbicidal activity (In-planta), LTP-Pre emergence, Phalaris paradoxa” value (Phalaris paradoxa [6]) was 60, the “Herbicidal activity (In-planta), LTP-Pre emergence, Amaranthus palmeri” value (Amaranthus palmeri [7]) was 80 and the “Herbicidal activity (In-planta), LTP-Pre emergence, Alopecurus myosuroides” value (Alopecurus myosuroides) was 40. The “Herbicidal activity (In-planta), LTP-Pre emergence, Abutilon theophrasti” value (Abutilon theophrasti) was 60-80, the “Herbicidal activity (In-planta), LTP-Pre emergence, Arabidopsis thaliana” value (Arabidopsis thaliana [8]) was 40-80 and the “Herbicidal activity (In-planta), LTP-Pre emergence, Eragrostis tef” value (Eragrostis tef [9]) was 100. The “Herbicidal activity (In-planta), LTP-Pre emergence, Poa annua” value (Poa annua [10]) was 100, the “Herbicidal activity (In-planta), LTP-Pre emergence, Sinapis alba” value (Sinapis alba [11]) was 40-60 and the “Herbicidal activity (In-planta), LTP-Pre emergence, Lolium perenne” value (Lolium perenne [12]) was 80. The “Herbicidal activity (In-planta), LTP-Pre emergence, Ambrosia artemisiifolia” value (Ambrosia artemisiifolia) was 0, the “Herbicidal activity (In-planta), LTP-Post emergence, Poa annua” value (Poa annua [13]) was 90 and the “Herbicidal activity (In-planta), LTP-Post emergence, Phalaris paradoxa” value (Phalaris paradoxa [14]) was 80. For the same molecule, the “Herbicidal activity (In-planta), LTP-Post emergence, Sinapis alba” value (Sinapis alba [15]) was 60, the “ED50 (g/ha)” value (Eragrostis teff; [17]) was 35 g/ha and the “Max Inhibition (%)” value (Eragrostis teff; green area (RGB)) was 100%. For the same molecule, the “Herbicidal activity (In-planta), LTP-Post emergence, Echinochloa colon” value (Echinochloa colon) was 95, the “Herbicidal activity (In-planta), LTP-Post emergence, Setaria viridis” value (Setaria viridis [16]) was 90-95 and the “Herbicidal activity (In-planta), LTP-Post emergence, Solanum nigrum” value (Solanum nigrum) was 80-90.
